The values below come from patent publication US5385831A, “Method for producing a mammalian G protein coupled glutamate receptor” (priority 1993, dated 1995).

For orientation: EC50 means the concentration that produces a half-maximal response.

SMILES strings stand for the structures.

For assay [1], the system named is glutamate G protein coupled receptor. The assay is described as follows: Voltage-clamp assay of antagonist inhibition of glutamic acid-evoked current in injected oocytes. The assay is classed as cell-based, rat. The note with it: 1 mM DL-AP3. As to the method: Voltage clamp assays were also carried out on injected oocytes to measure the inhibition by the putative glutamate G protein coupled receptor antagonist, 2-amino-3-phosphonopropionic acid (AP3).

For assay [2], the target named is T1, GluG R encoded by clone 45-A (Rattus norvegicus, UniProt P23385). Briefly: Voltage-clamp assay of L-glutamic acid analogs at saturating concentrations in injected oocytes. The assay is classed as cell-based. Also on record: expressed in transfected cells; host or cells: Xenopus oocytes injected with in vitro transcribed (T7, pVEGT') clone 45-A RNA.
Assay [3] concerns the target T1, GluG R encoded by clone 45-A. As to conditions: read-out: Glutamate Analog Potencies (EC50); Xenopus oocytes injected with 45-A RNA; responses normalized to subsequent response to 100 μM L-glutamic acid.
Another assay concerns GluG R. The assay is described as follows: Voltage-clamp assay of oocytes injected with RNA from rat cerebellum cDNA library pools. The assay is classed as cell-based. As for the experimental part:
Plasmid DNA prepared from each of the 10 pools of 100,000 clones, which in total represented one sublibrary of one million clones of the cerebellum cDNA library, was purified by cesium chloride gradient ultracentrifugation. The DNA was transcribed in vitro with T7 RNA polymerase (Pharmacia) in the presence of capped nucleotide (GpppG, Pharamcia). […] The transcription reaction tubes were set up by adding 12 μl of 5× transcription buffer (Stratagene Cloning Systems, La Jolla, Calif.), 3 μl each of 10 mM ATP, CTP, GTP, and UTP, 6 μl of 10 mM GpppG (Pharmacia), 6 μl of 1 mg/ml BSA, 3 μl of 200 mM DTT, 1.5 μl of 40 U/μl RNasin (ProMega Biotech, Madison, Wis.), 8.5 μl of water, 10 μl of cDNA containing 5 to 10 μg DNA, and 1 μl of 70 U/μl T7 RNA polymerase. […] Forty microliters of water was added to the radiolabeled reactions, and 1 μl was removed from each sample and counted to determine total counts. […] The samples were centrifuged to collect the RNA and the RNA pellets were counted to determine the counts incorporated into RNA. […]
The RNA from each of the 10 sublibraries were injected into oocytes as described above and translation was allowed for four days. Expression of GluG R activity was assessed by voltage-clamp assay as described above. […]

T1 sequence (P23385 19-1199): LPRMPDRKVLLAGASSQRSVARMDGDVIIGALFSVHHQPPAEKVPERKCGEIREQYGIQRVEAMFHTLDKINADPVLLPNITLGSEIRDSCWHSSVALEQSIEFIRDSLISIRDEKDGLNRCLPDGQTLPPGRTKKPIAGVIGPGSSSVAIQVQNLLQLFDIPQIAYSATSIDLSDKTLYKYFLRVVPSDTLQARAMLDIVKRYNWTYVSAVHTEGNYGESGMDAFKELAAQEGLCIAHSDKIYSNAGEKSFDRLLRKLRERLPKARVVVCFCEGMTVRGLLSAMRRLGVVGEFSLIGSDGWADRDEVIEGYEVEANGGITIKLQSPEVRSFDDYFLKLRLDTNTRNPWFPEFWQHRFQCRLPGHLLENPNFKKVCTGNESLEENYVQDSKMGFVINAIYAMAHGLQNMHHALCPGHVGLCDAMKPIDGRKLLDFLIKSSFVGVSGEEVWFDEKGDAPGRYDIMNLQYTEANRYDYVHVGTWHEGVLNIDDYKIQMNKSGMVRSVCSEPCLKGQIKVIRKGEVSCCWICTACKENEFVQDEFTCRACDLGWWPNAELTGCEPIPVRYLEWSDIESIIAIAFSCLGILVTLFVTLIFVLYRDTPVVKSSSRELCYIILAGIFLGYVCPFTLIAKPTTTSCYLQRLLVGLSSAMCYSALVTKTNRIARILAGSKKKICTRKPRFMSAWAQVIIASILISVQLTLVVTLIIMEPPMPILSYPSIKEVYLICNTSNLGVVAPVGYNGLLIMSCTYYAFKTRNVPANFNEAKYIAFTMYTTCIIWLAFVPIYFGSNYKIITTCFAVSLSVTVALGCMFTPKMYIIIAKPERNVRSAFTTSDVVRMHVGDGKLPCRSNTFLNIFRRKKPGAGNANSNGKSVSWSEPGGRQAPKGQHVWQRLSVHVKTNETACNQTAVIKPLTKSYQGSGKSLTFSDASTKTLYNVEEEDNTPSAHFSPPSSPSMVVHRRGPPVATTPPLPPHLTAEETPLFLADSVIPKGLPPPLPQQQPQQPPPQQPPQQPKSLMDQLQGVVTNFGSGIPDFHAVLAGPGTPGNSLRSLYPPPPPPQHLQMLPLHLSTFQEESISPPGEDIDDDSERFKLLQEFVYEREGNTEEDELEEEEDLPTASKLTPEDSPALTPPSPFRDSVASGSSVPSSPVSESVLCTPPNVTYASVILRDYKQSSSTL

In the case of `NC(CP(=O)(O)O)C(=O)O` (racemic) [DL-AP3, 2-amino-3-phosphonopropionic acid], in assay [1], the “current evoked by 10 μM glutamic acid, reduced to % of the control” value was 59.3±7.3%.
Take `Cc1onc(O)c1CC(N)C(=O)O` (stereo not drawn) [AMPA, α-amino-3-hydroxy-5-methyl-isoxazole-4-propionic acid]: in assay [2] (100 μM), the “response normalized to a subsequent response to 100 μM L-glutamate (effective/ineffective)” value (shortened to “response normalized … (effective/ineffective)”) is “ineffective”.
Turning to `N[C@@H](CC(=O)O)C(=O)O` [aspartic acid], the “response normalized … (effective/ineffective)” value in assay [2] (1 mM) is given as “ineffective”.
On the same count and under the same terms, next, `C=C(C)[C@H]1CN[C@H](C(=O)O)[C@H]1CC(=O)O` [kainic acid]: “ineffective”.
Regarding `N[C@H](C(=O)O)c1cc(=O)[nH]o1` [Ibotenic acid, ibotenic acid], the concentration giving a half-maximal response (EC50) in assay [3] turned out to be 32.4 µM.
For the compound `N[C@@H](Cn1oc(=O)[nH]c1=O)C(=O)O` [Quisqualic acid, quisqualic acid], in the assay with GluG R (oocyte injected with approximately 100 ng RNA from subfractionated pool of 14,000 colonies, estimated from a digital panel meter), the “peak current in response to quisqualate” value is listed as “approximately 1300 nA”. Further, the “signal with administration of quisqualate to the oocyte” value in the assay on GluG R (sublibrary pool Z93-1.9 (100,000 clones)) is recorded as “produced a signal”.
Turning to `CN[C@H](CC(=O)O)C(=O)O` [NMDA, N-methyl-D-aspartic acid], the “response normalized … (effective/ineffective)” value in assay [2] (100 μM NMDA + 10 μM glycine) is recorded as “ineffective”.
As to `NC(CCP(=O)(O)O)C(=O)O` (stereo not drawn) [APB, 2-amino-4-phosphonobytyric acid], the “response normalized … (effective/ineffective)” value in assay [2] (100 μM) is recorded as “ineffective”.
